Test results published in patent US20240246969A1, “HETEROCYCLIC DERIVATIVES AS CAMKK2 INHIBITORS” (Bristol-Myers Squibb Company, priority 2021, published 2024).

Legend:
pAMPK in A427 = experiment: A427 pAMPK MOA assay; format: cell-based; conditions: Homo sapiens, A-427
CYP450 = CYP450 inhibition; format: in vitro ADME; conditions: all isoforms except 2C9
2C9 = 2C9 (Homo sapiens, UniProt P11712); experiment: CYP450 2C9 inhibition; format: in vitro ADME
PPB, mouse (m) = format: in vitro ADME; conditions: plasma, first value of (m, h)
PPB, human (h) = format: in vitro ADME; conditions: plasma, second value of (m, h)
[1] = Microsomes stability, mouse (m); format: in vitro ADME; conditions: first value of (m, h)
[2] = Microsomes stability, human (h); format: in vitro ADME; conditions: second value of (m, h)
PK = conditions: in vivo; read-out: PK % F
CEREP = CEREP panel; conditions: @ 10 uM

Chain of 2C9 (P11712 whole entry): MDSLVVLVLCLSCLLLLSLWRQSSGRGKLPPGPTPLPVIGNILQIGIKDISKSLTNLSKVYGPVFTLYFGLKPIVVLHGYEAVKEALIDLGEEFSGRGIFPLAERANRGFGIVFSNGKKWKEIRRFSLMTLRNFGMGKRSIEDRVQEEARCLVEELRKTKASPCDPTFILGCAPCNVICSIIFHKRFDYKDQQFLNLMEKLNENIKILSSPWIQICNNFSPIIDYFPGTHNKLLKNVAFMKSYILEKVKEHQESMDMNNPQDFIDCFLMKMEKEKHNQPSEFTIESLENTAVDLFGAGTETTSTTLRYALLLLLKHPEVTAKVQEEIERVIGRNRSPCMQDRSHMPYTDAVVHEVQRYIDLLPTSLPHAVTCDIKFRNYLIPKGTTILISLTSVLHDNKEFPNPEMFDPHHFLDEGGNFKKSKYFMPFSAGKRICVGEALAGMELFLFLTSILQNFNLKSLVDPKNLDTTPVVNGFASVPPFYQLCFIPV

SMILES: CCOc1ccc2c(-c3ccc(C(=O)O)c(C4CCCC4)c3)ncnc2c1 [Example 5.1, 2-cyclopentyl-4-(7-ethoxyquinazolin-4-yl)benzoic acid]
- EC50 (pAMPK in A427): 0.074 µM
- CYP450 (CYP450): > 30 µM
- CYP450 2C9 (2C9): 2C9 (4 mM)
- fraction unbound (PPB, mouse (m)): 0.015
- fraction unbound (PPB, human (h)): 0.01
- Microsomes (m) Stability60 [1]: Stability60: 96, %
- Microsomes (m) UGT [1]: 79%
- Microsomes (h) Stability60 [2]: 100%
- Microsomes (h) UGT [2]: 89%
- bioavailability (PK): 80%
- CEREP (CEREP): no inhibition >50%
